The target of test [1] is T1, BAZ2B bromodomain (Homo sapiens, UniProt Q9UIF8).
T1 sequence (Q9UIF8 1868-1972 isoform Q9UIF8-4): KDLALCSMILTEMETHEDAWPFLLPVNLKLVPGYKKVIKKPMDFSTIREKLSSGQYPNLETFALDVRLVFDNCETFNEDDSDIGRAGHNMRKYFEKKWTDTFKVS
As to conditions: acetylated lysine alone; cited from earlier work.

Test [2] has as its target T1, BAZ2B bromodomain. The test is described as follows: ITC of H3K14ac peptides binding to BAZ2B bromodomain.

For the compound `CC(=O)NCCCC[C@H](N)C(=O)O` [Acetylated lysine, N-ε-acetyl lysine], the “interaction with BAZ2B bromodomain” value at BAZ2B bromodomain [1] is reported as “interact only very weakly”. The term Kd denotes the equilibrium constant for the complex coming apart. Regarding `CC(=O)NCCCC[C@H](NC(=O)CNC(=O)CNC(=O)[C@@H](NC(=O)[C@H](CO)NC(=O)[C@H](CCCCN)NC(C)=O)[C@@H](C)O)C(=O)N[C@@H](C)C(=O)N1CCC[C@H]1C(=O)N[C@@H](CCCNC(=N)N)C(=O)N[C@@H](CCCCN)C(=O)N[C@@H](CCC(N)=O)C(N)=O` [Peptide 3], the affinity on BAZ2B bromodomain [2], expressed as Kd, was 15.7 ± 1.1 µM. As for `CC(=O)NCCCC[C@H](NC(=O)CNC(=O)CNC(=O)[C@@H](NC(=O)[C@H](CO)NC(C)=O)[C@@H](C)O)C(=O)N[C@@H](C)C(=O)N1CCC[C@H]1C(=O)N[C@@H](CCCNC(=N)N)C(=O)N[C@@H](CCCCN)C(N)=O` [Peptide 1], the affinity on BAZ2B bromodomain [2], expressed as Kd, was 45 ± 3.3 µM. In addition, the “reduction in affinity relative to Peptide 4” value on BAZ2B bromodomain [2] (ITC KD ratio) is reported as 2 fold.

Regarding Ac-KSTGGK(Ac)APRK-NH2 [Peptide 4], binding on BAZ2B bromodomain [2] was characterised by a dissociation constant (Kd) of 21.8 ± 1.4 µM.

The record behind these values is paper PMC4458377 (Biochemistry, 2014).
